In US7410955B2, “Therapeutic use of agonist ligands specific to G2A receptor” (Biosynergen, Inc., priority 2002, dated 2008):

How the values were obtained:
[1] = tested on: neutrophils; assay: Inhibition of anti-apoptosis of neutrophils by inflammation mediators (AcOr/EtBr staining); format: cell-based, human; conditions: 15 μM and 30 μM
From the text: (§1) Neutrophils were isolated from healthy adults using discontinuous percoll gradient according to the method of Szucs, S. et al. (J. Immunol. Methods, 167: 245-251, 1994). First, plasmas were separated from heparinized whole blood, and red blood cells were depleted by dextran sedimentation. Thereafter, leukocytes were layered over a percoll gradient with densities of 1.077 and 1.094 (Pharmacia, Sweden). Separated neutrophil layers were recovered from the percoll gradient interface, and then washed with HBSS (Hank's balanced salt solution, Sigma Chemical Co., USA). The remaining pellet was resuspended in RPMI 1640 medium supplemented with 10% FBS (fetal bovine serum) and 2 mM gentamicin. As a result of the examination of the cytospin stained with Wright-Giemsa (Sigma Chemical Co., USA), it was observed that the resuspension solution contained 95% or more neutrophils. Also, as a result of examination using trypan blue dye exclusion method, 98% or more neutrophils were observed.
1×10^5 neutrophil cells isolated in above Example <1-1> were cultured in a 96-well plate to which RPMI1640 medium containing 10% FBS was added. Thereafter, they were treated with 1-stearoyl lysophosphatidylcoline (Sigma Chemical Co., USA) in concentrations of 15 μM and 30 μM, respectively. After 1 hour, they were treated with 1 μg/ml LPS (Sigma Chemical Co.). After 24 hours, the medium was removed from the plats, and the remaining cells were washed twice with PBS (phosphate-buffered saline) buffer at 4° C. The cells adhered to the bottom of the plate were all scraped and put into a 1.5-ml eppendorf tube. Then, they were centrifuged at 2500 rpm for 5 min, and the supernatant was removed. Again, 0.1 ml of PBS buffer at 4° C. was added to the pellet, which was then well mixed using pipetting. To 25 μl of the cell suspension was added 2 μl of AcOr/EtBr dye solution in which 100 μg/ml of acridine orange (AcOr) and 100 μg/ml of ethidium bromide (EtBr) were mixed. Then, the percentage of apoptotic cells/total cells was calculated with observing the neutrophil cells under a fluorescence microscope. […]

[2] = tested on: neutrophils (human PMNs); assay: IL-8 release induced by LPS in neutrophils (ELISA); format: cell-based; conditions: 15 μM and 30 μM, 1 hour before 1 μg/ml LPS, supernatant after 3 hours
From the text: as §1, with “observed. […]” for “observed.”
The neutrophils and monocytes isolated in Examples <2-1> and <2-2> above were cultured in a 96-well plate to which RPMI1640 medium containing 10% FBS was added, at a concentration of 1×10^5 cells/well/0.2 ml, respectively. […] Then, the level of IL-8 was measured using ELISA kit (Biosource, USA).

[3] = tested on: E. coli; assay: In vitro antibacterial activity of LPC (CFU on LB media); format: cell-based; conditions: for CFU: 37° C., 12 hours
Experimental: Four petridishes per group were used. For a control group, only LB media was poured onto four 60-mm petridishes and hardened. The peritoneal cavity of mice according to Example <6-1> was washed with sterilized saline. The resultant solution was diluted with HBSS in a ratio of 1/100, and then 10 μl of the diluted solution was spread on the media for each group. Subsequently, after they had been incubated in a bacteria incubator maintained at 37° C. for 12 hours, colony forming unit (CFU) was visibly measured.

For `CCCCCCCCCCCCCCCCCC(=O)OCC(O)COP(=O)([O-])OCC[N+](C)(C)C` (stereo not shown) [1-stearoyl LPC, 1-stearoyl (18:0) lysophosphatidylcholine], the “percentage of neutrophil apoptosis (apoptotic cells/total cells) that had been decreased by LPS” value ([1]; 1 hour before 1 μg/ml LPS, read after 24 hours) was “increased by 1-stearoyl LPC in a concentration-dependent manner”, the “percentage of neutrophil apoptosis that had been decreased by endogenous inflammation mediators” value ([1]; 100 ng/ml GM-CSF, 100 ng/ml G-CSF or 100 ng/ml IFN-γ instead of LPS) was “increased by 1-stearoyl LPC in a concentration-dependent manner” and the “level of IL-8 release that had been increased by LPS in neutrophils” value [2] was “inhibited by LPC in a concentration-dependent manner”. The CFU ([3]; LPC conc. 12 μM in LB media) was 661 ± 285, the CFU ([3]; LPC conc. 60 μM in LB media) was 639 ± 304 and the CFU ([3]; LPC conc. 300 μM in LB media) was 611 ± 281. The “in vitro direct antibacterial effects against E. coli” value ([3]; summary of Table 1) was “no in vitro direct antibacterial effects”.
